The values below come from patent US20210254056A1, “IDENTIFICATION AND TARGETED MODULATION OF GENE SIGNALING NETWORKS” (CAMP4 THERAPEUTICS CORPORATION, priority 2017, published 2021).

Read-outs that look alike come from different tables or passages of the source.

The test relates to hepatocytes. The test is described as follows: RNA-seq of hepatocytes treated with Phase III failure compounds. Here is the method:
RNA-seq was performed to determine the effects of the compounds on hepatocytes.
Significance was determined by the criteria of FPKM≥0.5, a log 2(fold-change)≥1, and a […].

On to `COCCOc1ccc(N2CCN(CCn3ncc4c3nc(N)n3nc(-c5ccco5)nc43)CC2)cc1` [Preladenant], for which the “Number (#) of genes having significantly changed expression” value (RNA-seq, Phase III failure compounds, hepatocytes, significance: FPKM≥0.5, log 2(fold-change)≥1, q-value≥0.05 (so in the source)) was 317. In addition, where the note is “RNA-seq, q≤0.05, hepatocytes, genes in the value or listed in the block”, the “significant modulation of expression of disease genes” value was “significantly (q≤0.05) modulate expression”. Also, the “B2M expression, RNA-seq result” value (gene B2M, hepatocytes) turned out to be 0.09. Also, the “B9D2 expression, RNA-seq result” value (gene B9D2, hepatocytes) was −0.56. Moreover, under “gene BAAT, hepatocytes”, the “BAAT expression, RNA-seq result” value is listed as −0.58. Also, the “BBOX1 expression, RNA-seq result” value (gene BBOX1, hepatocytes) is reported as −0.56. Also, the “BBS10 expression, RNA-seq result” value (gene BBS10, hepatocytes) is −0.21. Besides, for the setting “gene BCHE, hepatocytes”, the “BCHE expression, RNA-seq result” value is listed as −0.63. Moreover, for the setting “gene BCKDHB, hepatocytes”, the “BCKDHB expression, RNA-seq result” value was −0.78. Also, the “BCKDK expression, RNA-seq result” value (gene BCKDK, hepatocytes) is −0.48. Under “gene BCO1, hepatocytes”, the “BCO1 expression, RNA-seq result” value is −1.07. Also, the “BCR expression, RNA-seq result” value (gene BCR, hepatocytes) is recorded as −0.62. Also, the “BLNK expression, RNA-seq result” value (gene BLNK, hepatocytes) was 0.53. The “BLOC1S3 expression, RNA-seq result” value (gene BLOC1S3, hepatocytes) was 0.3. For the same compound, the “BMPR1A expression, RNA-seq result” value (gene BMPR1A, hepatocytes) was found to be 0.11. For the same compound, for the setting “gene BRAF, hepatocytes”, the “BRAF expression, RNA-seq result” value is listed as 0.46. For the same compound, for the setting “gene BSCL2, hepatocytes”, the “BSCL2 expression, RNA-seq result” value is recorded as −0.26. The “BTD expression, RNA-seq result” value (gene BTD, hepatocytes) is −0.16. Besides, the “C4A expression, RNA-seq result” value (gene C4A, hepatocytes) was determined as 0.16. Also, the “C9 expression, RNA-seq result” value (gene C9, hepatocytes) is given as −0.38. Moreover, for the setting “gene C10orf10, hepatocytes”, the “C10orf10 expression, RNA-seq result” value is recorded as 0.14. Also, the “C10orf11 expression, RNA-seq result” value (gene C10orf11, hepatocytes) is on record as −0.32. Besides, the “C15orf41 expression, RNA-seq result” value (gene C15orf41, hepatocytes) is −0.17. The “CA2 expression, RNA-seq result” value (gene CA2, hepatocytes) turned out to be 0.76. In addition, the “CA5A expression, RNA-seq result” value (gene CA5A, hepatocytes) is −0.56. Further, the “CA12 expression, RNA-seq result” value (gene CA12, hepatocytes) was 0.43. Besides, the “CAV1 expression, RNA-seq result” value (gene CAV1, hepatocytes) was −0.02. Also, the “CCND1 expression, RNA-seq result” value (gene CCND1, hepatocytes) is recorded as −0.89. Where the note is “gene CD46, hepatocytes”, the “CD46 expression, RNA-seq result” value was found to be 0.34. Besides, for the setting “gene CD81, hepatocytes”, the “CD81 expression, RNA-seq result” value was −0.26. For the same compound, for the setting “gene CD320, hepatocytes”, the “CD320 expression, RNA-seq result” value is listed as −0.95. Also, the “CDAN1 expression, RNA-seq result” value (gene CDAN1, hepatocytes) is −0.32. The “CDH1 expression, RNA-seq result” value (gene CDH1, hepatocytes) is listed as −0.29. The “CEP19 expression, RNA-seq result” value (gene CEP19, hepatocytes) is listed as −0.54. For the same compound, for the setting “gene CEP83, hepatocytes”, the “CEP83 expression, RNA-seq result” value amounted to 0.05. For the same compound, the “CEP164 expression, RNA-seq result” value (gene CEP164, hepatocytes) was −0.48. In addition, the “CEP290 expression, RNA-seq result” value (gene CEP290, hepatocytes) is on record as 0.41. The “CFB expression, RNA-seq result” value (gene CFB, hepatocytes) is on record as 0.26. For the same compound, the “CFHR2 expression, RNA-seq result” value (gene CFHR2, hepatocytes) was −0.22. Besides, the “CHRM3 expression, RNA-seq result” value (gene CHRM3, hepatocytes) is 0.06. For the same compound, the “CIDEC expression, RNA-seq result” value (gene CIDEC, hepatocytes) was −1.38. In addition, the “CLDN1 expression, RNA-seq result” value (gene CLDN1, hepatocytes) was −0.26. In addition, the “COG1 expression, RNA-seq result” value (gene COG1, hepatocytes) is recorded as −0.08.

As for `CNC1(C)[C@H]2CCC(C2)C1(C)C.Cl` (stereo partly drawn) [S-(+)-MecaMylaMine Hydrochloride], under “RNA-seq of Table 36, FPKM≥0.5, log 2(fold-change)≥1, q-value≤0.05”, the “significant changes in gene expression” value is “not observed to cause any significant changes in gene expression”. Besides, the “significant modulation of expression of any of the genes analyzed” value (RNA-seq, p≤0.05, hepatocytes) is “not observed to significantly modulate expression”.

In the case of `C=CCNC1=C2C[C@@H](C)C[C@H](OC)[C@H](O)[C@@H](C)/C=C(\C)[C@H](OC(N)=O)[C@@H](OC)/C=C\C=C(/C)C(=O)NC(=CC1=O)C2=O` [Compound 17-AAG], the “Number (#) of genes having significantly changed expression” value amounted to 1558.
